In US20250154172A1, “PRMT5 INHIBITORS AND USES THEREOF” (Gilead Sciences, Inc., priority 2023, published 2025):

What was measured:
[1] = system: Panc-1; assay: Cell viability assay for additional cell lines: Panc-1; assay type: cell-based; conditions: for GI50: Homo sapiens, 216 h, 9-day treatment, average of n=2, read-out: MTAP-Deleted GI50
Procedure: Some Compounds of the Disclosure were tested in Calu-6 (Vendor: ATCC; Cat #HTB-56; Description: lung, adenocarcinoma), LU99 (Vendor: JCRB; Cat #JCRB0080; Description: non-small cell lung cancer), SW780 (Vendor: ATCC; Cat #CRL-2169; Description: bladder urothelial carcinoma), BxPC-3 (Vendor: ATCC; Cat #CRL-1687; Description: pancreatic adenocarcinoma), Panc-1 (Vendor: ATCC; Cat #CRL-1469 Description: pancreatic adenocarcinoma), AsPC-1 (Vendor: ATCC; Cat #CRL-1682; Description: pancreatic adenocarcinoma), Calu-6 (Vendor: ATCC; Cat #HTB-56; Description: non-small cell lung cancer), and U-2 OS (Vendor: ATCC; Cat #HTB-96; Description: osteosarcoma), cellular viability assays according to the general protocol. Seeded cells into 96-well plate and incubated overnight. Seeded an additional 10 wells per cell line in an additional 96-well plate for assessing Time Zero luminescence and incubated overnight. To treatment plates, added compounds into each well using Tecan D300e dispenser (nine three-fold dilutions starting at 10 μM) and incubated for 9 days. Time Zero (no compound treatment, luminescence assessed on day 1) and 9-day treatment (luminescence assessed on day 10) plates were assessed using the same CellTiter-Glo® substrate protocol. Thawed CellTiter-Glo® Buffer and lyophilized CellTiter-Glo® substrate and equilibrated to room temperature prior to use. The DMSO concentration was normalized to 0.137%. Transferred 100 ml CellTiter-Glo® Buffer into amber bottle containing CellTiter-Glo® substrate to reconstitute the lyophilized enzyme/substrate mixture. For Time Zero and 9-day treatment plates, removed all plating media. Added 100 μl fresh media/well. Added 100 μl CellTiter-Glo® Reagent per well. Mixed contents for 10 min on an orbital shaker to lyse cells. Recorded luminescence with Perkin Elmer Envision 2105 machine. Analyzed the data with GraphPad software. Potency fold difference is defined as GI50 (AMG193)/GI50 (Ca-47) for the MTAP^del cell line of interest. The structure of AMG193 is as follows.

[2] = Hepatocyte stability assay; assay type: in vitro ADME; conditions: Rat hepatocytes; 1 μM substrate
Procedure: BioreclamationIVT (Baltimore, MD) provided the cryopreserved hepatocytes, hepatocyte thawing (HT) medium, and Krebs-Henseleit buffer (KHB) medium. The stock solution concentration was 1 M in DMSO and was then diluted further in acetonitrile/water (1:1 v/v). All other chemicals were purchased from Sigma-Aldrich (St. Louis, MO) or Thermo Fisher Scientific (Waltham, MA).
The quench solution used to stop reactions in the hepatocyte incubations was comprised of 100% (v/v) acetonitrile. Internal Standard/Quench (IS/Q) solution used to stop reactions with the positive control also contained 200 nM Labetalol.
Metabolic Stability in Cryopreserved Hepatocytes: Test compounds, or the positive control metabolic substrate, was incubated in suspensions of cryopreserved hepatocytes at a final concentration of 1 μM. Vials containing cryopreserved hepatocytes were removed from liquid nitrogen and immediately immersed in a 37° C. water bath. The vials were swirled gently until the contents had thawed. […] The viabilities of all cell preparations were >85%, assessed by Trypan blue dye exclusion.
For incubations, aliquots of hepatocyte suspension (250 μL containing a cell concentration of 2×10^6 cells/mL) were added to 250 μL of 2 μM substrate (test compound or positive control) in supplemented KHB in duplicate wells in a 24-well plate. […] Samples were injected and analyzed with methods described below. […]

GI50 [1] [nM] | Predicted Hepatocyte CL [2] [mL/min/kg] | Structure (SMILES) | Potency fold difference ([1]; GI50 (AMG193)/GI50 (Ca-47))
517 | 41 | Nc1nc2cnc(C(=O)N3CCOC[C@@H]3c3ccc(C(F)(F)F)cc3)cc2c2c1COC2 [AMG193, reference compound] | –
87 | 42.2 | Nc1nc2cnc(C(=O)N3CCC[C@@H]4Oc5cc(C(F)(F)F)cc(F)c5[C@@H]43)cc2c2c1COC2 [Example Ca-47, (4-amino-1,3-dihydrofuro[3,4-c][1,7]naphthyridin-8-yl)((4aS,9bS)-9-fluoro-7-(trifluoromethyl)-3,4,4a,9b-tetrahydrobenzofuro[3,2-b]pyridin-1(2H)-yl)methanone] | 5.9
